Where a SMILES comes first, the peptide text is derived from it.
How the values were obtained:
[1] = Cell viability of peritoneal macrophages (MTT reduction); assay type: cell-based, Balb/c mice; conditions: Balb/c, mouse, primary thioglycollate-elicited peritoneal macrophages, 5 μM pre-incubation 18 h, then LPS, read-out: Viability of the cells
Experimental: Peritoneal elicited cells were obtained from Balb/c mice (CENPALAB, Havana, Cuba). Primary mouse macrophages was collected from the peritoneal cavity 4 days after intraperitoneal injection with 1 ml of 4% Brewer's thioglicollate broth. Cell were maintained in RPMI 1640 supplemented with 10% heat-inactivated fetal bovine serum, 2 mM L-glutamine, 200 units/ml penicillin, and 200 μg/ml streptomycin at 37° C. in 5% CO2/[…].
Assay for Secretion of NO2-(Jin, F^29, Nathan, C, Radzioch, 0, and Ding, A. Cell, 1997, 88: 417-426). Cells were plated in 96-well plates at 2×10^6 cells /ml in 200 μl of medium and incubated at 37° C. for 2 h, then non-adherent cells were removed by repeated washing with PBS. Macrophage were pre-incubated with 5 μM of LALF peptide during 18 h, afterward were washed with RPMI medium in order to eliminated the peptide. Then the macrophages were treated 72 hr with LPS of E. coli 0111:B4, Sigma (1 μg/ml). Cell viability was assessed by mitochondrial-dependent reduction of MTT to formazan (Szabo^30, c, Mitchell, J A, Gross, S S, Thiemermann, C, and Vane, JR. J. Pharm. Exp. Therap., 1992, 265: 674-80). […] Absorbance at 540 nm was recorded in a microplate reader (SUMA) with sodium nitrite as standards (Green^28, L C, Wagner, D A, Glogowski, J, et al. Anal Biochem 1982; 126: 131-8). […]

human mononuclear cells = experiment: Antiviral effect on Hep-2 cells of supernatant from human mononuclear cells stimulated with peptide; assay type: cell-based; conditions: for Antiviral effect of supernatant, 1: supernatant on Hep-2, experiment 1; for Antiviral effect of supernatant, 2: supernatant on Hep-2, experiment 2; for Antiviral effect of supernatant, 3: supernatant on Hep-2, experiment 3; for Antiviral effect of supernatant, Mean: supernatant on Hep-2, mean of 3
Experimental: Then the cells were washed with saline solution and infected with […] of Mengo virus, provide by Institute of Molecular Biology, University of Zurich, which is multiplied in the cell line L929 murine fibroblasts. 18 h later degree of cell destruction was measured by fixation and staining, generally with crystal violet, for reading of cytophatic effect was used a photometer Ultramicroanalytical System (SUMA). A computer program in Pascal UCSD language for the microcomputer system was developed for all calculations and corrections (Ferrero et al., 1994, Biotecnologia Aplicada. Vol. 1:). In this case serial dilution's of human γ-IFN 70 000 IU/ml (MRI, Freeze-dried Reference Human Recombinant Gamma Interferon) was used as standard in order to define unit of antiviral activity. For this reason the antiviral protection shown by the peptide is related to International Units of γ-IFN (Ul/ml). As a negative control were used different peptides from proteins that bind endotoxin. LPS at 10 ng/ml was used as a positively control because is well known that it induced the production of IFNs (Manthey et al., 1994, J. Immunology. Vol. 153: 2653-2663). One unit of antiviral activity is define as the quantity of IFN able to produce an 50% inhibition of the viral replication.
Venous blood was obtained from healthy volunteers and Ficoll-Hypaque centrifugation, fractionated mononuclear cells. The mononuclear cells were washed and resuspended in endotoxin-free RPMI-1640 culture medium supplemented with 10% fetal calf serum. Concentration of 2×10^6 cells/ml were aliquoted into 24-well microtiter plates (Nunc, Denmark). The cells were then incubated with 14 and 28 μg/ml of different peptides: Limulus anti-LPS factor31-52 (LALF), Lipopolysaccharide Binding Protein86-99 (LBP) and 18 kDa Cationic Antimicrobial Protein108-128 (CAP-18), at 37° C. for 18 hours in 5% CO2. The cells were centrifuged at 3000 rpm for 5 min and then serial dilutions of supematants were assays for antiviral activity using the procedures described in the example 2.

[2] = system: cytokine mRNA in human PBMCs; experiment: Cytokine gene expression in human PBMCs by Ribonuclease Protection Assay (hck-1 probe set); assay type: cell-based; conditions: 5 μM for 18 hours; FIG. 8
Experimental: The Ribonuclease Protection Assay (RPA) is a highly sensitive and specific method for the detection, quantification and characterization of RNA molecules (Gilman^32, M. In Current Protocols in Molecular Biology. J. Wiley and Sons, New York, p. 4.7.1-7.7.8. 1988 and Dent^33, A. L., Shaffer, A. L., Yu […]., 1997. Cytokine expression and germinal center formation by Bcl-2. […] Samples of total RNA from stimulated and nonstimulated human PBMCs were analyzed for distinct mRNA species by PharMingen's RiboQuantTM. Multi-Probe Ribonuclease Protection Assay System with the hck-1 probe template set (Cat. No. 45031P) which including mRNA species analyses for a different cytokine eg. (IL-5, IL-4, IL-10, IL-15, IL-9, IL-2, IL-13, IFN-γ). […] The identity and quantity of each mRNA species in the original RNA sample can then be determined based on the signal intensities given by the appropriately sized of protected probe fragment bands. Unprotected probe set and a probe for housekeeping gene transcripts are incorporating in order to identify and quantify the RNA molecules in the original samples. […] FIG 8: Samples of total RNA from stimulated human PBMCs with 5 μM of peptide for 18 hours were analyzed for distinct mRNA species by using […] […]

[3] = mononuclear cells stimulated with 14 μg/ml for 18 h
[4] = mononuclear cells stimulated with 28 μg/ml for 18 h

Question: Which viability at 18 h, 5 µM [1] does the source give for `CC[C@H](C)[C@H](NC(=O)[C@H](CCCNC(=N)N)NC(=O)[C@H](Cc1ccc(O)cc1)NC(=O)[C@H](Cc1c[nH]cn1)NC(=O)[C@@H](N)CS)C(=O)N[C@@H](CCCCN)C(=O)N1CCC[C@H]1C(=O)N[C@H](C(=O)N[C@@H](Cc1ccccc1)C(=O)N[C@@H](CCCNC(=N)N)C(=O)N[C@@H](CCCNC(=N)N)C(=O)N[C@@H](CC(C)C)C(=O)N[C@@H](CCCCN)C(=O)N[C@@H](Cc1c[nH]c2ccccc12)C(=O)N[C@@H](CCCCN)C(=O)N[C@@H](Cc1ccc(O)cc1)C(=O)N[C@@H](CCCCN)C(=O)NCC(=O)N[C@@H](CCCCN)C(=O)N[C@@H](Cc1ccccc1)C(=O)N[C@@H](Cc1c[nH]c2ccccc12)C(=O)N[C@@H](CS)C(=O)O)[C@@H](C)O` [LALF] (H-CHYRIKPTFRRLKWKYKGKFWC-OH) here?
Answer: The viability at 18 h, 5 µM was ≥ 98%.

Question: What about the “Release of protective mediator by human peripheral blood mononuclear cells (in words)” value (human mononuclear cells; 14 and 28 μg/ml, 18 h) of the same molecule?
Answer: Its value is “induce them to release certain mediator capable of conferring protection to the Hep-2 cells against viral infections”.

Question: What about the “Antiviral effect of supernatant, 1” value (human mononuclear cells; [3]) of the same molecule?
Answer: Its value is 28 IU/ml γ-IFN.

Question: What about the “Antiviral effect of supernatant, 2” value (human mononuclear cells; [3]) of the same molecule?
Answer: Its value is 27.6 IU/ml γ-IFN.

Question: What about the “Antiviral effect of supernatant, 3” value (human mononuclear cells; [3]) of the same molecule?
Answer: Its value is 20.4 IU/ml γ-IFN.

Question: What about the “Antiviral effect of supernatant, Mean” value (human mononuclear cells; [3]) of the same molecule?
Answer: The value was 25.3 IU/ml γ-IFN.

Question: What about the “Antiviral effect of supernatant, 1” value (human mononuclear cells; [4]) of the same molecule?
Answer: Its value is 28.4 IU/ml γ-IFN.

Question: And the “Antiviral effect of supernatant, 2” value (human mononuclear cells; [4])?
Answer: Its value is 28 IU/ml γ-IFN.

Question: And the “Antiviral effect of supernatant, 3” value (human mononuclear cells; [4])?
Answer: The value was 20 IU/ml γ-IFN.

Question: What about the “Antiviral effect of supernatant, Mean” value (human mononuclear cells; [4]) of the same molecule?
Answer: The value was 25.4 IU/ml γ-IFN.

Question: What about the “Cytokine gene expression in human PBMCs (in words)” value [2] of the same molecule?
Answer: Its value is “able to preferentially induce IFN-γ, IL-2 and IL-13 gene expression”.
